Where no end group is shown, it is not given here.
Tests used:
[1] = system: Y. ruckeri 392/2003; test: MIC testing (CLSI broth microdilution); format: cell-based; settings: Table 6, triplicates
Description: (§1) The minimum inhibitory concentrations (MICs) of the AMPs were measured in 96-well microtiter plates according the Clinical and Laboratory Standards Institute [CLSI, formerly National Committee for Clinical Laboratory Standards (NCCLS)] (Wikler et al., [2009]). Liquid Mueller-Hinton-II medium containing increasing concentrations of AMPs is inoculated with a defined number of cells (~10^5 CFUs/ml) in 96-well microtiter plates (polypropylene). Each microtiter plate includes a positive growth control and a negative control (sterile control). After incubation, the minimal inhibitory concentration (MIC) is determined by the lowest concentration showing no visible growth. All plates were incubated for 16–20 h.

[2] = system: S. typhimurium LT2; test: MIC testing (CLSI broth microdilution); format: cell-based; settings: Table 6, triplicates
Description: as §1

[3] = system: E. coli ATCC25922 ΔwaaG; format: cell-based, Escherichia coli; settings: Table 6, triplicates
Description: (§2) The E. coli strains 470, F632, F653 and F2513 were kindly provided by Prof. H. Brade and Prof. S. Muller-Loennies, Research Center Borstel, Leipniz-Center for Medicine and Biosciences, Germany. E. coli BW25113 (CGSC#:7636), a derivative of F^−, λ^− E. coli K12 strain BD792 is the wild-type strain which was used in the generation of the KEIO collection and ordered from the Coli Genetic Stock Centre (CGSC, Yale University). E. coli JW3596, E. coli JW3024, E. coli JW3595, E. coli JW3606, E. coli JW0212, E. coli JW1667, E. coli JW0554, E. coli JW3605 and E. coli JW3600 are isogenic mutants of waaC, waaE, waaF, waaG, gmhA (lpcA), lpp, ompT, waaP, or waaY derived from the parental strain E. coli BW25113 and were ordered from the KEIO collection (Baba et al., [2006]). E. coli ATCC25922 is a clinical isolate, serotype O6, often used as control strain in antimicrobial susceptibility testing was ordered from the ATCC strain collection. All strains were grown in Mueller-Hinton-II medium and incubation took place aerobically at 37°C for 18–20 h.
as §1

[4] = system: E. coli ATCC25922; format: cell-based, Escherichia coli; settings: Table 6; E. coli ATCC25922 wild-type; triplicates
Description: as §2, §1

[5] = system: E. coli ATCC25922 ΔwaaE; format: cell-based, Escherichia coli; settings: Table 6, triplicates
Description: as §2, §1

[6] = system: E. coli ATCC25922 ΔwaaC; format: cell-based, Escherichia coli; settings: Table 6, triplicates
Description: as §2, §1

[7] = system: E. coli ATCC25922 ΔwaaF; format: cell-based, Escherichia coli; settings: Table 6, triplicates
Description: as §2, §1

Sequence | Antimicrobial activity: MIC [1] | Antimicrobial activity: MIC [2] | Antimicrobial activity: MIC [3] | Antimicrobial activity: MIC [4] | Antimicrobial activity: MIC [5] | Antimicrobial activity: MIC [6] | Antimicrobial activity: MIC [7]
GLRKRLRKFRNKIKECLKKIGQKIQGLLPKLAPRTDY [K16C] | 8 to 16 µg/mL | 8 to 16 µg/mL | 8 µg/mL | 8 µg/mL | 8 µg/mL | 4 µg/mL | 4 µg/mL
GLRKRLRKFRNKHKEKLKKIGQKIQGLLPKLAPRTDY [I13H] | 8 to 16 µg/mL | 4 µg/mL | 2 µg/mL | 4 µg/mL | 2 µg/mL | 2 µg/mL | 2 µg/mL
GLRKRLRKFRNKRKEKLKKIGQKIQGLLPKLAPRTDY [I13R] | 32 to 64 µg/mL | 16 to 32 µg/mL | 8 µg/mL | ≥64 µg/mL | ≥64 µg/mL | 32 µg/mL | 16 µg/mL
GLRKRLRKFRNKPKEKLKKIGQKIQGLLPKLAPRTDY [I13P] | ≥64 µg/mL | 16 to 32 µg/mL | 32 µg/mL | ≥64 µg/mL | 32 µg/mL | 32 µg/mL | 16 µg/mL
GLRKRLRKFRNKIKEKPKKIGQKIQGLLPKLAPRTDY [L17P] | ≥64 µg/mL | ≥64 µg/mL | ≥64 µg/mL | ≥64 µg/mL | ≥64 µg/mL | ≥64 µg/mL | ≥64 µg/mL
GLRKRLRKFRNKIKEDLKKIGQKIQGLLPKLAPRTDY [K16D] | 4 µg/mL | 4 µg/mL | 4 µg/mL | 4 µg/mL | 8 µg/mL | 2 µg/mL | 2 µg/mL
GLRKRLRKFRNKIKEKLPKIGQKIQGLLPKLAPRTDY [K18P] | 32 µg/mL | 4 µg/mL | 4 µg/mL | 8 µg/mL | 4 µg/mL | 2 µg/mL | 4 µg/mL
GLRKRLRKFRNKIKEKLKKIGQKIQTLLPKLAPRTDY [G26T] | 2 to 4 µg/mL | 4 to 8 µg/mL | 4 µg/mL | 8 µg/mL | 4 µg/mL | 4 µg/mL | 4 µg/mL
GLRKRLRKFRNKFKEKLKKIGQKIQGLLPKLAPRTDY [I13F] | 2 µg/mL | 4 µg/mL | 2 µg/mL | 4 µg/mL | 2 µg/mL | 2 µg/mL | 2 µg/mL

From article PMC6137088, “The Role of Outer Membrane Proteins and Lipopolysaccharides for the Sensitivity of Escherichia coli to Antimicrobial Peptides” (Frontiers in Microbiology, 2018)
